# What was measured:
# [1] = molecular target: T1, Fe nitrogenase reductase component AnfH2 in the Anf(DGK)2(H2)2 complex (Rhodobacter capsulatus, UniProt D5ANJ6); test: cryo-EM structure ([…] Å); format: binding; details: covalent (Cys97 and Cys132 of two AnfH subunits); co-purified
# T1 construct: gene anfH; N-terminal His6-tag on AnfH, C-terminal Strep-tag II on AnfD, no linkers; plasmid expression in R. capsulatus MM0436; AlF3-trapped Anf(DGK)2(H2)2, ~360 kDa by mass photometry; with Nitrogenase iron-iron protein alpha chain; Nitrogenase iron-iron protein beta chain; Nitrogenase iron-iron protein delta chain
# [2] = molecular target: T2, Fe nitrogenase catalytic component, AnfD FeFeco site, in the Anf(DGK)2(H2)2 complex (Rhodobacter capsulatus, UniProt D5ANJ7); test: cryo-EM structure ([…] Å); format: binding; details: bidentate ligand of FeFeco iron Fe8 via 2-hydroxyl and 2-carboxyl; co-purified; ADP·AlF3-trapped complex
# T2 construct: C-terminal Strep-tag II on AnfD, N-terminal His6-tag on AnfH, no linkers; plasmid expression in R. capsulatus MM0436; AlF3-trapped Anf(DGK)2(H2)2; with Nitrogenase iron-iron protein beta chain; Nitrogenase iron-iron protein delta chain; Nitrogenase iron protein (iron-iron nitrogenase reductase)
# T2 sequence (D5ANJ9 entry or part of it): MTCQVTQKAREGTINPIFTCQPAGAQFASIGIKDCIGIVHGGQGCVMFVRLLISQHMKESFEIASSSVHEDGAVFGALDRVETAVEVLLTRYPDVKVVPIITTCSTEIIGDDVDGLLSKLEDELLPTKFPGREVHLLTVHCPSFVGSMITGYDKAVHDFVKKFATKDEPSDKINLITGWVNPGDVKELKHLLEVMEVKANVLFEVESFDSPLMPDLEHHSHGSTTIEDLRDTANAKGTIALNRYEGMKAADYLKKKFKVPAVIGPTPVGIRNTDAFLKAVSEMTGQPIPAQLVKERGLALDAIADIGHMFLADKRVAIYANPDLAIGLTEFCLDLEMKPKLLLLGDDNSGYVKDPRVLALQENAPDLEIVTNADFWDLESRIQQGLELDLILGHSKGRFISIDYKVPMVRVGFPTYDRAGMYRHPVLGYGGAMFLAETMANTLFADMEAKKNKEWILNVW
# T2 sequence (D5ANJ6 entry or part of it, further chain): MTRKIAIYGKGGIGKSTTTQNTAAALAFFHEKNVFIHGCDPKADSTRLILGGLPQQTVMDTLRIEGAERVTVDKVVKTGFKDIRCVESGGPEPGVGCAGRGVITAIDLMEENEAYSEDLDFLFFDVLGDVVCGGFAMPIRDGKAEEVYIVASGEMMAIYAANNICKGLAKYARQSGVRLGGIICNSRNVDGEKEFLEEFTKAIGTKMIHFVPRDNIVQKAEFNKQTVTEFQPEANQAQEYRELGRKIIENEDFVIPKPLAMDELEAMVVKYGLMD
# T2 sequence (D5ANJ7 entry or part of it): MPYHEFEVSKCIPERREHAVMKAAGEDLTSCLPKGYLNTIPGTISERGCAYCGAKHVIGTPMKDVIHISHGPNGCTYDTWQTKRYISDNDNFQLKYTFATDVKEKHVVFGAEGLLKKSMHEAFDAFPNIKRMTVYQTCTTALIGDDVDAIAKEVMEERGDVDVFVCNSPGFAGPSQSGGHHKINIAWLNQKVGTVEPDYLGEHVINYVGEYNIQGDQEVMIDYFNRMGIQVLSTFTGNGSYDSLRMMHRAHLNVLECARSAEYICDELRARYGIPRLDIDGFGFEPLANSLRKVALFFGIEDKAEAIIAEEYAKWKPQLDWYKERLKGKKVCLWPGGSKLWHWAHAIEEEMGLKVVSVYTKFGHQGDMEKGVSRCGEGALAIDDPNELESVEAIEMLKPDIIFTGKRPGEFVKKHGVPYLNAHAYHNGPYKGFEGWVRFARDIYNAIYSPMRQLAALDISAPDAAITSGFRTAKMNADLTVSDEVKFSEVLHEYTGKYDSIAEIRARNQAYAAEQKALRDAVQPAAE
# T2 sequence (D5ANJ8 entry or part of it, further chain): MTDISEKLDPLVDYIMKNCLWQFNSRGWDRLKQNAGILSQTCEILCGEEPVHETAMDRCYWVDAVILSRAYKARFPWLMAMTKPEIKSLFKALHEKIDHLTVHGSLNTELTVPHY
# T1 sequence (D5ANJ6 1-275): as the sequence (D5ANJ6 entry or part of it, further chain) above
# T1 sequence (D5ANJ7 1-527 partner): as the sequence (D5ANJ7 entry or part of it) above
# T1 sequence (D5ANJ9 1-460 partner): as the sequence (D5ANJ9 entry or part of it) above
# T1 sequence (D5ANJ8 1-115 partner): as the sequence (D5ANJ8 entry or part of it, further chain) above
SMILES,cryo-EM structure (2.35 Å) [1],cryo-EM structure (2.35 Å) [2]
[S]12[Fe]3[S]4[Fe]1[S]1[Fe]2[S]3[Fe]41 [[Fe4S4] cluster],we observed an [Fe4S4] cluster coordinated by Cys97 and Cys132,
O=C(O)CC[C@@](O)(CC(=O)O)C(=O)O [(R)-homocitrate],,additionally coordinated by a bidentate (R)-homocitrate ligand that binds the iron atom

# Reference: article PMC10803253, “Structural insights into the iron nitrogenase complex” (Nature Structural & Molecular Biology, 2023)
